The source of these data is ChEMBL document CHEMBL5113478, “7-Azaindole, 2,7-diazaindole, and 1H-pyrazole as core structures for novel anticancer agents with potential chemosensitizing properties” (Eur J Med Chem, 2022).

Assay [1] deals with MOLT-4. In words: Antiproliferative activity against human MOLT-4 cells assessed as […] cell proliferation at 10 uM incubated for 48 hrs by WST-1 assay relative to control. In kind it is functional. (Tetrazolium dyes change colour on reduction, which living cells bring about.)
In assay [2] the test system is MOLT-4. Nature of the assay: Antiproliferative activity against human MOLT-4 cells assessed as […] cell proliferation at 10 uM incubated for 48 hrs in presence of 2 uM of CDDP by WST-1 assay relative to control. Type of assay: functional.
The test system of assay [3] is Jurkat. Nature of the assay: Antiproliferative activity against human Jurkat cells assessed as […] cell proliferation at 10 uM incubated for 48 hrs by WST-1 assay relative to control. Type of assay: functional.
The subject of assay [4] is Jurkat. Nature of the assay: Antiproliferative activity against human Jurkat cells assessed as […] cell proliferation at 10 uM incubated for 48 hrs in presence of 2 uM of CDDP by WST-1 assay relative to control. In kind it is functional.
For assay [5], the system named is A2780. In words: Antiproliferative activity against human A2780 cells assessed as […] cell proliferation at 10 uM incubated for 48 hrs by WST-1 assay relative to control. In kind it is functional.
Assay [6] concerns A2780. In words: Antiproliferative activity against human A2780 cells assessed as […] cell proliferation at 10 uM incubated for 48 hrs in presence of 2 uM of CDDP by WST-1 assay relative to control. Type of assay: functional.
The test system of assay [7] is MCF7. Nature of the assay: Antiproliferative activity against human MCF7 cells assessed as […] cell proliferation at 10 uM incubated for 48 hrs by WST-1 assay relative to control. In kind it is functional.
The subject of assay [8] is MCF7. In words: Antiproliferative activity against human MCF7 cells assessed as […] cell proliferation at 10 uM incubated for 48 hrs in presence of 10 uM of CDDP by WST-1 assay relative to control. Type of assay: functional.
Assay [9] deals with A549. In words: Antiproliferative activity against human A549 cells assessed as […] cell proliferation at 10 uM incubated for 48 hrs by WST-1 assay relative to control. Type of assay: functional.
Assay [10] has as its system A549. In words: Antiproliferative activity against human A549 cells assessed as […] cell proliferation at 10 uM incubated for 48 hrs in presence of 15 uM of CDDP by WST-1 assay relative to control. Type of assay: functional.
Assay [11] has as its system SAOS-2. In words: Antiproliferative activity against human SAOS-2 cells assessed as […] cell proliferation at 10 uM incubated for 48 hrs by WST-1 assay relative to control. Type of assay: functional.
Assay [12] concerns SAOS-2. Nature of the assay: Antiproliferative activity against human SAOS-2 cells assessed as […] cell proliferation at 10 uM incubated for 48 hrs in presence of 15 uM of CDDP by WST-1 assay relative to control. Type of assay: functional.
Assay [13] concerns PANC-1. Nature of the assay: Antiproliferative activity against human PANC-1 cells assessed as […] cell proliferation at 10 uM incubated for 48 hrs by WST-1 assay relative to control. Type of assay: functional.
The subject of assay [14] is PANC-1. Nature of the assay: Antiproliferative activity against human PANC-1 cells assessed as […] cell proliferation at 10 uM incubated for 48 hrs in presence of 15 uM of CDDP by WST-1 assay relative to control. In kind it is functional.
Assay [15] concerns HT-29. Nature of the assay: Antiproliferative activity against human HT-29 cells assessed as […] cell proliferation at 10 uM incubated for 48 hrs by WST-1 assay relative to control. In kind it is functional.
The subject of assay [16] is HT-29. In words: Antiproliferative activity against human HT-29 cells assessed as […] cell proliferation at 10 uM incubated for 48 hrs in presence of 15 uM of CDDP by WST-1 assay relative to control. Type of assay: functional.
Assay [17] deals with HeLa. In words: Antiproliferative activity against human HeLa cells assessed as […] cell proliferation at 10 uM incubated for 48 hrs by WST-1 assay relative to control. In kind it is functional.
For assay [18], the system named is 1321N1. In words: Cytotoxicity against human 1321N1 cells assessed as reduction in cell viability at 15 uM incubated for 48 hrs by MTT assay. Type of assay: functional, cell-based.
The next assay deals with GBM. In words: Cytotoxicity against patient-derived human GBM cells assessed as reduction in cell viability at 15 uM incubated for 48 hrs by MTT assay. In kind it is functional.
The test system of assay [19] is 1321N1. In words: Chemo-sensitizing activity against human 1321N1 cells at 15 uM incubated for 48 hrs in presence of TMZ by MTT assay. In kind it is functional, cell-based.
Assay [20] concerns HeLa. In words: Antiproliferative activity against human HeLa cells assessed as […] cell proliferation at 10 uM incubated for 48 hrs in presence of 15 uM of CDDP by WST-1 assay relative to control. In kind it is functional.

Activity calls are given as the source filed them. No cut-off for these calls is given here.

`CC(C)S(=O)(=O)c1ccc(-c2cc(C(=O)N3CCc4ccccc4C3)n[nH]2)cc1`: the Activity is on record as 82% with MOLT-4 [1]; 57% in the assay on MOLT-4 [2]; 82% with Jurkat [3]; 57% in the assay on Jurkat [4]; 82% in the assay on A2780 [5]; 57% with A2780 [6]. For the same compound, the Activity in the assay on MCF7 [7] is reported as 82%; in the assay with MCF7 [8], 57%; in the assay with A549 [9] it was 82%; in the assay with A549 [10], 57%; with SAOS-2 [11], 82%; in the assay on SAOS-2 [12] it was 57%. Also, the Activity in the assay with PANC-1 [13] was found to be 82%; in the assay on PANC-1 [14], 57%; in the assay on HT-29 [16], 57%; in the assay with HeLa [17] it was 82%; with GBM it was 50%; in the assay on HeLa [20] it was 57%. The “Cell viability relative to control” value in the assay on HT-29 [15] came to 82%. Besides, the result with 1321N1 [18] and in the assay with 1321N1 [19] was Active.
For `CC(C)S(=O)(=O)c1ccc(-c2cnc3[nH]c(C(=O)N4CCc5ccccc5C4)cc3c2)cc1`, the Activity in the assay with MOLT-4 [1] stood at 71%; with MOLT-4 [2], 57%; with Jurkat [3], 71%; in the assay with Jurkat [4], 57%; in the assay with A2780 [5] it was 71%; with A2780 [6], 57%. The Activity with MCF7 [7] was 71%; in the assay with MCF7 [8], 57%; in the assay with A549 [9], 71%; in the assay on A549 [10], 57%; with SAOS-2 [11] it was 71%; in the assay on SAOS-2 [12], 57%. Besides, the Activity stood at 71% in the assay with PANC-1 [13]; 57% in the assay on PANC-1 [14]; 57% in the assay on HT-29 [16]; 71% in the assay with HeLa [17]; 50% with GBM; 57% in the assay with HeLa [20]. For the same compound, the “Cell viability relative to control” value in the assay with HT-29 [15] amounted to 71%. Besides, the result in the assay with 1321N1 [18] and in the assay on 1321N1 [19] was Active.
With `CCN(CC)c1ccc(CNC(=O)c2c[nH]c3ncc(-c4ccc(S(=O)(=O)C(C)C)cc4)cc23)cc1`, the Activity in the assay on MOLT-4 [1] is 64%; with MOLT-4 [2], 58%; in the assay with Jurkat [3], 64%; with Jurkat [4] it was 58%; in the assay on A2780 [5], 64%; in the assay with A2780 [6] it was 58%. Moreover, the Activity in the assay with MCF7 [7] came out at 64%; with MCF7 [8] it was 58%; with A549 [9] it was 64%; in the assay with A549 [10], 58%; in the assay on SAOS-2 [11] it was 64%; in the assay on SAOS-2 [12] it was 58%. The Activity in the assay on PANC-1 [13] came to 64%; in the assay with PANC-1 [14] it was 58%; in the assay on HT-29 [16] it was 58%; in the assay on HeLa [17] it was 64%; in the assay with HeLa [20] it was 58%. In the assay on HT-29 [15], the “Cell viability relative to control” value is 64%. In addition, the outcome in the assay with 1321N1 [18] and with GBM was Active.
As to `CC(C)S(=O)(=O)c1ccc(-c2cnc3[nH]cc(C(=O)Nc4ccc(N(C)C)cc4)c3c2)cc1`, the Activity with MOLT-4 [1] is 96%; with MOLT-4 [2], 59%; in the assay on Jurkat [3], 96%; in the assay on Jurkat [4] it was 59%; in the assay on A2780 [5] it was 96%; in the assay on A2780 [6] it was 59%. The Activity in the assay with MCF7 [7] came out at 96%; in the assay with MCF7 [8], 59%; with A549 [9] it was 96%; with A549 [10], 59%; in the assay on SAOS-2 [11], 96%; in the assay on SAOS-2 [12], 59%. For the same compound, the Activity is listed as 96% in the assay on PANC-1 [13]; 59% with PANC-1 [14]; 59% with HT-29 [16]; 96% in the assay on HeLa [17]; 59% in the assay on HeLa [20]. Also, the “Cell viability relative to control” value in the assay with HT-29 [15] is listed as 96%.
On to `CCN(CC)c1ccc(CNC(=O)c2cc(-c3ccc(S(=O)(=O)C(C)C)cc3)[nH]n2)cc1`, for which the Activity amounted to 78% in the assay with MOLT-4 [1]; 62% in the assay with MOLT-4 [2]; 78% with Jurkat [3]; 62% in the assay with Jurkat [4]; 78% in the assay with A2780 [5]; 62% in the assay on A2780 [6]. The Activity in the assay with MCF7 [7] is reported as 78%; in the assay on MCF7 [8] it was 62%; with A549 [9], 78%; in the assay with A549 [10] it was 62%; in the assay with SAOS-2 [11] it was 78%; in the assay with SAOS-2 [12], 62%. Also, the Activity with PANC-1 [13] is given as 78%; in the assay with PANC-1 [14], 62%; with HT-29 [16], 62%; in the assay with HeLa [17] it was 78%; with HeLa [20], 62%. Besides, in the assay with HT-29 [15], the “Cell viability relative to control” value was 78%.
Turning to `CC(C)S(=O)(=O)c1ccc(-c2cc(C(=O)NCc3ccccc3)n[nH]2)cc1`, the Activity with MOLT-4 [1] stood at 98%; in the assay with MOLT-4 [2], 68%; in the assay with Jurkat [3], 98%; in the assay on Jurkat [4] it was 68%; in the assay with A2780 [5] it was 98%; in the assay on A2780 [6] it was 68%. The Activity was determined as 98% in the assay with MCF7 [7]; 68% in the assay with MCF7 [8]; 98% in the assay on A549 [9]; 68% with A549 [10]; 98% with SAOS-2 [11]; 68% in the assay on SAOS-2 [12]. Also, the Activity in the assay on PANC-1 [13] turned out to be 98%; with PANC-1 [14], 68%; with HT-29 [16], 68%; in the assay with HeLa [17], 98%; with HeLa [20], 68%. Besides, the “Cell viability relative to control” value with HT-29 [15] was 98%.
Take `CCN1CCN(C(=O)c2c[nH]c3ncc(-c4ccc(S(C)(=O)=O)cc4)cc23)CC1`: the Activity is recorded as 95% with MOLT-4 [1]; 70% with MOLT-4 [2]; 95% in the assay with Jurkat [3]; 70% with Jurkat [4]; 95% in the assay on A2780 [5]; 70% in the assay with A2780 [6]. The Activity is listed as 95% in the assay on MCF7 [7]; 70% with MCF7 [8]; 95% with A549 [9]; 70% in the assay on A549 [10]; 95% in the assay on SAOS-2 [11]; 70% with SAOS-2 [12]. The Activity in the assay on PANC-1 [13] was determined as 95%; with PANC-1 [14] it was 70%; in the assay with HT-29 [16] it was 70%; in the assay on HeLa [17] it was 95%; in the assay on HeLa [20], 70%. In addition, the “Cell viability relative to control” value in the assay on HT-29 [15] is recorded as 95%.
